Laboratory results taken from US20210353693A1, “Live Biotherapeutics to Treat and Prevent Lung Conditions” (priority 2018, published 2021).
≈ marks a conversion by molar mass, not a printed value. Read-outs that look alike come from different tables or passages of the source.

Tested on: LH1
Assay: ETEST antibiotic sensitivity of LH1
Type: cell-based
Conditions: for MIC: read-out: Susceptible to
[1] = ETEST, LH1, 24-hours anaerobic incubation

| Compound | Resistant to [1] | MIC [1] | other results |
| --- | --- | --- | --- |
| NCC[C@H](O)C(=O)N[C@@H]1C[C@H](N)[C@@H](O[C@H]2O[C@H](CN)[C@@H](O)[C@H](O)[C@H]2O)[C@H](O)[C@H]1O[C@H]1O[C@H](CO)[C@@H](O)[C@H](N)[C@H]1O [Amikacin] | 48 µg/mL |  |  |
| C[C@H]1[C@H](NC(=O)/C(=N\OC(C)(C)C(=O)O)c2csc(N)n2)C(=O)N1S(=O)(=O)O [Aztreonam] |  | 2 mg/L (≈ 4.59 µM) |  |
| O=C(O)c1cn(C2CC2)c2cc(N3CCNCC3)c(F)cc2c1=O [Ciprofloxacin), Ciprofloxacin] | 32 µg/mL |  |  |
| CC[C@H]1OC(=O)[C@H](C)[C@@H](O[C@H]2C[C@@](C)(OC)[C@@H](O)[C@H](C)O2)[C@H](C)[C@@H](O[C@@H]2O[C@H](C)C[C@H](N(C)C)[C@H]2O)[C@](C)(OC)C[C@@H](C)C(=O)[C@H](C)[C@@H](O)[C@]1(C)O [Clarithromycin] |  |  | MIC (24 h): 0.16 mg/L (≈ 0.214 µM) |
| CC[C@H]1OC(=O)[C@H](C)[C@@H](O[C@H]2C[C@@](C)(OC)[C@@H](O)[C@H](C)O2)[C@H](C)[C@@H](O[C@@H]2O[C@H](C)C[C@H](N(C)C)[C@H]2O)[C@](C)(O)C[C@@H](C)C(=O)[C@H](C)[C@@H](O)[C@]1(C)O [Erythromycin] |  | 0.023 mg/L (≈ 0.0313 µM) |  |
| C[C@@H](O)[C@H]1C(=O)N2C(C(=O)O)=C(SCCN=CN)C[C@H]12 [Imipenem] |  | 0.094 mg/L (≈ 0.314 µM) |  |
| C[C@H]1COc2c(N3CCN(C)CC3)c(F)cc3c(=O)c(C(=O)O)cn1c23 [Levofloxacin] | 12 µg/mL |  |  |
| CC(=O)NC[C@H]1CN(c2ccc(N3CCOCC3)c(F)c2)C(=O)O1 [Linezolid] |  | 0.5 mg/L (≈ 1.48 µM) |  |
| CCN1CCN(C(=O)N[C@@H](C(=O)N[C@@H]2C(=O)N3[C@@H]2SC(C)(C)[C@@H]3C(=O)O)c2ccccc2)C(=O)C1=O [Piperacillan] |  |  | Susceptible to [1]: 0.19 µg/mL |
| CO[C@H]1/C=C/O[C@@]2(C)Oc3c(C)c(O)c4c(O)c(c(/C=N/N5CCN(C)CC5)c(O)c4c3C2=O)NC(=O)/C(C)=C\C=C\[C@H](C)[C@H](O)[C@@H](C)[C@@H](O)[C@@H](C)[C@H](OC(C)=O)[C@@H]1C [Rifampicin] |  | 0.125 mg/L (≈ 0.152 µM) |  |
| CN(C)[C@@H]1C(O)=C(C(N)=O)C(=O)[C@@]2(O)C(O)=C3C(=O)c4c(O)cccc4[C@@](C)(O)[C@H]3C[C@@H]12 [Tetracycline] |  | 0.5 mg/L (≈ 1.13 µM) |  |
| NC[C@H]1O[C@H](O[C@H]2[C@H](O)[C@@H](O[C@H]3O[C@H](CO)[C@@H](O)[C@H](N)[C@H]3O)[C@H](N)C[C@@H]2N)[C@H](N)C[C@@H]1O [Tobramycin] | >512 µg/mL |  |  |
| CN[C@H](CC(C)C)C(=O)N[C@H]1C(=O)N[C@@H](CC(N)=O)C(=O)N[C@H]2C(=O)N[C@H]3C(=O)N[C@H](C(=O)N[C@H](C(=O)O)c4cc(O)cc(O)c4-c4cc3ccc4O)[C@H](O)c3ccc(c(Cl)c3)Oc3cc2cc(c3O[C@@H]2O[C@H](CO)[C@@H](O)[C@H](O)[C@H]2O[C@H]2C[C@](C)(N)[C@H](O)[C@H](C)O2)Oc2ccc(cc2Cl)[C@H]1O [Vancomycin] |  | 1.5 mg/L (≈ 1.04 µM) |  |
| Amoxicillin/Clavulanic Acid |  |  | Susceptible to [1]: 0.125 µg/mL |
| Trimethoprim/Sulfamethoxazole | 32 µg/mL |  |  |
